Source: US6653340B1, “Compounds useful in the complement, coagulat and kallikrein pathways and method for their preparation” (BioCryst Pharmaceuticals, Inc., priority 1997, dated 2003)

How the values were obtained:
Assay type in all cases: biochemical
C1s = target: T1, C1s (Homo sapiens, UniProt P09871); test: C1s esterolytic inhibition assay (Z-Lys-SBzl substrate); details: Z-Lys-SBzl 1.29 mM, C1s 3 to 13 nM; read-out: Cls (Serine Protease Inhibitory Data, IC50)
T1 sequence (P09871 16-688): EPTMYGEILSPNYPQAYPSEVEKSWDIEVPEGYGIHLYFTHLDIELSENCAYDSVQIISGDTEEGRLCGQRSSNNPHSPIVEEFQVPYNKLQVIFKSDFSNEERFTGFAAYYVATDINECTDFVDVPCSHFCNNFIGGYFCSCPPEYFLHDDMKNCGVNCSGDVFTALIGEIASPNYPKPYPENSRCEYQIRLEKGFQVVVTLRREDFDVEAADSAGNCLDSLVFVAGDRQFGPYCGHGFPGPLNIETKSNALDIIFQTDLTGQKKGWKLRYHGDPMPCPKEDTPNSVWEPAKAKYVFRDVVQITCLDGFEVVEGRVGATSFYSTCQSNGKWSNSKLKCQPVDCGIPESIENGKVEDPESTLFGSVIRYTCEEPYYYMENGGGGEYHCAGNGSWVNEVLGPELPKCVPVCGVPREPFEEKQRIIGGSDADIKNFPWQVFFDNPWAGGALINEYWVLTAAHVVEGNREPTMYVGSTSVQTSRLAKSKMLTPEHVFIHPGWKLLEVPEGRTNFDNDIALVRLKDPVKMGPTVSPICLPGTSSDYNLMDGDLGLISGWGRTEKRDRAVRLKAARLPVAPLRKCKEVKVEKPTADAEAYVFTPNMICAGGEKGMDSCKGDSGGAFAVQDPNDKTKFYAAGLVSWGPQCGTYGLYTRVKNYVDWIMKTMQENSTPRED
Method: (§1) The compounds to be tested were dissolved in a stock solution of DMSO at 10.0 or 100 mM. A portion of this stock solution was added to assay buffer in a final volume of 100 μL containing the enzyme of interest. Controls included buffer alone and enzyme solutions to which DMSO was added. Substrate was added to the reaction wells immediately or after incubation at room temperature. The reaction rates were measured spectrophotometrically by the generation of product at 405 nm for 200 sec. Background absorbance at 690 nm was measured and subtracted from the absorbance at 405 nm for each well.
(§2) The reaction rate for enzyme alone was compared to the rate of enzyme in the presence of inhibitor and the percent inhibition was calculated as shown below:
(§3) Percent Inhibition=[Rate without inhibitor−Rate with inhibitor)/(Rate without inhibitor)]×100
(§4) Compounds in the examples were tested a minimum of three times.
C1s esterolytic activity was assayed using a modification of the technique originally described by Kam using Z-Lys-SBzl, 1.29 mM as substrate and C1s at 3 to 13 nM.

Thrombin = Thrombin (Homo sapiens, UniProt P00734); test: Thrombin inhibition assay (N-Benzoyl-Phe-Val-Arg-p-nitroanilide substrate); details: thrombin 12.5 U/ml, pH 7.5; read-out: Thrombin (Serine Protease Inhibitory Data, IC50)
Method: as §1, §2, §3, §4
(§5) Thrombin was assayed at 12.5 U/ml using 0.37 mM N-Benzoyl-Phe-Val-Arg-p-nitroanilide (Svendsen, L.; Blomback B.; Blomback, M.; Olsson, P. I. Substrate for determination of trypsin, thrombin and thrombin-like enzymes. Folia Haematol. 1972, 98, 446-454.) as the substrate in 100 mM HEPES, 10 mM CaCl2, 10% DMSO, pH 7.5. Factor Xa, 0.5 U/mL, was assayed in 50 mM HEPES, 150 mM NaCl, 10 mM CaCl2, pH 8.0 using Chromozyme X, 0.17 mM, as the substrate. Plasmin (0.004 units/mL), factor XIIa ([…]) and kallikrein (0.02 units/mL were assayed using modifications of the techniques originally described by McRae, et al. (Biochemistry. 1981, 20, 7196-7206). The assays were run in 200 mM triethanolamine, pH 7.8 and 100 mM Tris-HCl, 100 mM EDTA, […] using Z-Lys-SBzl, 0.13 mM and […], 0.16 mM, as substrates, respectively.

Factor Xa = Factor Xa (Homo sapiens, UniProt P00742); test: Factor Xa inhibition assay (Chromozyme X substrate); details: Factor Xa 0.5 U/mL, pH 8.0; read-out: Xa (Serine Protease Inhibitory Data, IC50)
Sequence of Factor Xa (P00742 235-488 limits assumed): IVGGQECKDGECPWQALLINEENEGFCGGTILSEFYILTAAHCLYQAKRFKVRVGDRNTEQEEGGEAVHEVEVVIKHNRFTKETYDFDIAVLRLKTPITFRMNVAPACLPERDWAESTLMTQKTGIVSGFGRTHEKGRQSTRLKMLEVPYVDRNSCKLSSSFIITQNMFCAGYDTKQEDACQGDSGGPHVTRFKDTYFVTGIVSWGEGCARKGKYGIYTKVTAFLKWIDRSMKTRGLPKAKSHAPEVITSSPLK
Sequence of Factor Xa (P00742 41-179 partner limits assumed): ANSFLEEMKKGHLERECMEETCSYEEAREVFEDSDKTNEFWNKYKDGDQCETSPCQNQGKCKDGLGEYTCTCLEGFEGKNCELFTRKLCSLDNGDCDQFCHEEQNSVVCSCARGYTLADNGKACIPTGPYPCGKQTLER
Method: as §1, §2, §3, §4, §5

kallikrein = kallikrein (Homo sapiens, UniProt P03952); test: Kallikrein inhibition assay (thioester substrate); details: kallikrein 0.02 units/mL; read-out: Kallikrein (Serine Protease Inhibitory Data, IC50)
Sequence of kallikrein (P03952 whole entry): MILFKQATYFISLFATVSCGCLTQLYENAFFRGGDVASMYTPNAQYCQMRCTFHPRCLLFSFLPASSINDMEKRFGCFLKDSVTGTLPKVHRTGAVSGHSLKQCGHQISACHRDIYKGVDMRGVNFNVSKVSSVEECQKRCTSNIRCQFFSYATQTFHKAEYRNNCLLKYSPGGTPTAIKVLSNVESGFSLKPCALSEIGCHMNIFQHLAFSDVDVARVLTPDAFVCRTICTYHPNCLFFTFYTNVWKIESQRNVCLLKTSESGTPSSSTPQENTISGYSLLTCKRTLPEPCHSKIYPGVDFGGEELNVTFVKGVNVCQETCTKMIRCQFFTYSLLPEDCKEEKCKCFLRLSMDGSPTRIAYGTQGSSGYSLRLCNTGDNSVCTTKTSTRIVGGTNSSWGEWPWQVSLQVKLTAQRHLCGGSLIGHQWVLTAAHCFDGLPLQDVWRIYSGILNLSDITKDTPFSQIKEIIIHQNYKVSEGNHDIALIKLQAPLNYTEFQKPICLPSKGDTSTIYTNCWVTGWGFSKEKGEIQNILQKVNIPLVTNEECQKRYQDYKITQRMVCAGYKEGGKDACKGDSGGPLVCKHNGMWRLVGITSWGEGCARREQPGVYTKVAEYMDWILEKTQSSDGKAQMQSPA
Method: as §1, §2, §3, §4, §5

factor XIIa = target: T2, factor XIIa (Homo sapiens, UniProt P00748); test: Factor XIIa inhibition assay (thioester substrate); details: read-out: XIIa (Serine Protease Inhibitory Data, IC50)
T2 sequence (P00748 373-615 limits assumed): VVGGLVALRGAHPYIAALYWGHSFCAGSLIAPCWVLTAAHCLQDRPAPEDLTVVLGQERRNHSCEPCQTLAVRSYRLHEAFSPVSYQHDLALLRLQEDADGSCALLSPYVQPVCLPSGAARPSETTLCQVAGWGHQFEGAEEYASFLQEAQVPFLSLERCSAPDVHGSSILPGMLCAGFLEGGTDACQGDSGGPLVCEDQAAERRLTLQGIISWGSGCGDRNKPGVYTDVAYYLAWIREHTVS
Method: as §1, §2, §3, §4, §5

Plasmin = Plasmin (Homo sapiens, UniProt P00747); test: Plasmin inhibition assay (thioester substrate); details: plasmin 0.004 units/mL; read-out: Plasmin (Serine Protease Inhibitory Data, IC50)
Sequence of Plasmin (P00747 581-810 limits assumed, species assumed): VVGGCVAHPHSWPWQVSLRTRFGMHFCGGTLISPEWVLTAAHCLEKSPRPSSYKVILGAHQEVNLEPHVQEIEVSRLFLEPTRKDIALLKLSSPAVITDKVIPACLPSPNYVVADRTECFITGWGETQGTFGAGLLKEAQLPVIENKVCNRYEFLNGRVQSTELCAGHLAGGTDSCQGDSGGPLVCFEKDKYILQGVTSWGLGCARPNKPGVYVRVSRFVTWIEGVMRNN
Sequence of Plasmin (P00747 97-580 partner limits assumed, species assumed): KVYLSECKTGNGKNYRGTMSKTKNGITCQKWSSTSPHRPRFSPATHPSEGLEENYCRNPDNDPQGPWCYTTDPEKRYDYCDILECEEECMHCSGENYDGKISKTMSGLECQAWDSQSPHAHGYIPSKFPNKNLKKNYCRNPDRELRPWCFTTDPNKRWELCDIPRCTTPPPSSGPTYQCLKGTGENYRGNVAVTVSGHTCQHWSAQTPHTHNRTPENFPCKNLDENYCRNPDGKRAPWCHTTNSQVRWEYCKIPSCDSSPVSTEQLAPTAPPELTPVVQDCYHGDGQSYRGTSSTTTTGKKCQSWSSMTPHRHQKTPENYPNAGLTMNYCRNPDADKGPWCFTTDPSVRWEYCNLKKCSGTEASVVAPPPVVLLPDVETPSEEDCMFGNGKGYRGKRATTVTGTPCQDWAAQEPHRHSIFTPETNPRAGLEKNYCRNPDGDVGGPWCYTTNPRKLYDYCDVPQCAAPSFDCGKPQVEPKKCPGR
Method: as §1, §2, §3, §4, §5

Factor D = Factor D (Homo sapiens, UniProt P00746); test: Factor D esterolytic inhibition assay (Z-Lys-SBzl substrate); design: Factor D was purified from the urine of a patient with Fanconi syndrome by ion exchange chromatography; from tissue; host or cells: urine of a patient with Fanconi syndrome; details: Z-Lys-SBzl 1.29 mM, pH 7.5, 10% DMSO; read-out: Factor D (Serine Protease Inhibitory Data, IC50)
Sequence of Factor D (P00746 26-253): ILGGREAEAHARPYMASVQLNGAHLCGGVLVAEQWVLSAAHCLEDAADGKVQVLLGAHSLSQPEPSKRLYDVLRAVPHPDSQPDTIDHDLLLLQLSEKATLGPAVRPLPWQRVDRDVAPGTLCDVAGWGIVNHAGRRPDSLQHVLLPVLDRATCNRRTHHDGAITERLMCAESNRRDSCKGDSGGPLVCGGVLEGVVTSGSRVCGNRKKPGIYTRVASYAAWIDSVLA
Source text: A modification of the procedure of Volanakis (Volankis, J. E.; Barnum, S. R.; Kilpatrick, J. M. Purification and properties of human factor D. Methods in Enzymol. 1993, 223, 82-97) for purification of Factor D was utilized as described by Yamauchi (Yamauchi, Y.; Stevens, J. W.; Macon, K. J.; Volanakis, J. E. Recombinant and native zymogen forms of human complement factor D. J. Immunol. 1994, 152, 3645-3653. Briefly, Factor D was purified from the urine of a patient with Fanconi syndrome by ion exchange chromatography using BioRex 70 and two rounds of ion-exchange chromatography in a Pharmacia FPLC system using a HR5/5 Mono S column.
as §1, §2, §3, §4
An established esterolytic assay for the measurement of Factor D activity and inhibition of Factor D activity was used (Kam, C. M.; McRae, B. J.; Harper, J. W.; Niemann, M. A.; Volanakis, J. E.; Powers, J. C. Human complement proteins D, C2, and B Active site mapping with peptide thioester substrates. J Biol. Chem. 1987, 262, 3444-3451). […] Hydrolysis of this compound by Factor D liberated a free sulfhydryl group which is then reacted with 5,5′-dithiobis(2nitrobenzoic acid) producing an intense yellow color (Habeeb, A. F. S. A. Reaction of protein sulfhydryl groups with Ellman's Reagent. Methods in Enzymol. 1976, 25, 457-464.). The assays were performed in 96 well microtiter plates and rates of hydrolysis were monitored at 405 nm in a Anthos Labtec HT2 plate reader. Hydrolysis rates were reported as change in mOD/min. The assay was conducted in 100 mM HEPES, 500 mM NaCl, pH 7.5 containing 10% DMSO in a final volume of 200 μL per well.

| SMILES | IC50 (C1s) [nM] | IC50 (Thrombin) [nM] | IC50 (Factor Xa) [nM] | IC50 (kallikrein) [nM] | IC50 (factor XIIa) [nM] | IC50 (Plasmin) [nM] | IC50 (Factor D) [nM] |
| --- | --- | --- | --- | --- | --- | --- | --- |
| N=C(N)c1cc2ccc(OC(=O)c3cccs3)cc2o1 [Example 2] | 519 | 520 | 996 |  |  | 817 | 9110 |
| N=C(N)c1cc2cc(OC(=O)c3cccs3)ccc2o1 [Example 4] | 50 | 124 | 880 |  |  | 116 | 5590 |
| N=C(N)c1cc2cc(OC(=O)c3ccsc3)ccc2o1 [Example 6] | 122 | 361 | 500 |  |  | 546 | 10800 |
| N=C(N)c1cc2ccc(OC(=O)c3ccco3)cc2s1 [Example 8] | 1.7 | 44 | 1 | 1.4 | 5.4 | 1 | 147 |
| N=C(N)c1cc2ccc(OC(=O)c3cccs3)cc2s1 [Example 9] | 1.6 | 42 | 3.2 | 1.4 | 6 | 4.1 | 96 |
| N=C(N)c1cc2ccc(OC(=O)c3ccsc3)cc2s1 [Example 11] | 4.3 | 39 | 6 | 1.6 | 12.7 | 9 | 175 |
| N=C(N)c1nc2ccc(OC(=O)c3cccs3)cc2s1 [Example 14] | 2 | 18 | 12 | 2 | 5 | 6 | 250 |
| N=C(N)c1nc2ccc(OC(=O)c3ccc(Cl)s3)cc2s1 [Example 17] | 2 | 48 | 2 |  |  | 3 | 260 |

Further lines, results first:

| IC50 (C1s) [nM] | IC50 (Thrombin) [nM] | IC50 (Factor Xa) [nM] | IC50 (kallikrein) [nM] | IC50 (factor XIIa) [nM] | IC50 (Plasmin) [nM] | IC50 (Factor D) [nM] | SMILES |
| --- | --- | --- | --- | --- | --- | --- | --- |
| 37 | 57 | 60 | 5.4 | 20 | 42 | 3650 | N=C(N)c1cc2ccc(OC(=O)c3ccco3)cc2o1 [Example 1, 2-Amidino-6-benzofuranyl 2-furanylcarboxylate] |
| 56 | 65 | 4 | 5.4 | 20.2 | 23 | 460 | N=C(N)c1cc2cc(OC(=O)c3ccco3)ccc2o1 [Example 3] |
| 76 | 104 | 1580 |  |  | 325 | 2850 | N=C(N)c1cc2cc(OC(=O)c3ccoc3)ccc2o1 [Example 5] |
| 11 | 39 | 23 | 1.3 | 901 | 11 | 500 | N=C(N)c1cc2ccc(OC(=O)c3ccccc3)cc2s1 [Example 7] |
| 4.1 | 47 | 1 | 1.6 | 17.4 | 1 | 177 | N=C(N)c1cc2ccc(OC(=O)c3ccoc3)cc2s1 [Example 10] |
| 5.3 | 44 | 52 | 3.8 | 13 | 37 | 564 | N=C(N)c1nc2ccc(OC(=O)c3ccccc3)cc2s1 [Example 12] |
| 3 | 25 | 1 | 4 | 9 | 2 | 421 | N=C(N)c1nc2ccc(OC(=O)c3ccco3)cc2s1 [Example 13] |
| 2 | 15 | 22 | 5 | 6 | 15 | 286 | N=C(N)c1nc2ccc(OC(=O)c3ccoc3)cc2s1 [Example 15] |
| 750 |  |  | 661 |  |  | 50000 | N=C(N)C1COc2cc(OC(=O)c3ccco3)ccc2C1 (stereo not shown) [Example 19] |
| 40 | 3110 | 7170 |  |  |  | 4000 | N=C(N)c1ccc2cc(OC(=O)c3ccccc3)ccc2c1 [reference, reference compound] |
